The source of these data is US9315522B2, “Antibacterial compounds” (JANSSEN SCIENCES IRELAND UC, priority 2012, dated 2016).

Like-named read-outs stand apart in the source and are kept apart here.

Data set [1] concerns S. aureus strain ATCC 29213. Description: In vivo efficacy, peritonitis model of S. aureus infection. Particulars: female Swiss albino mice, IP infection, inoculum 8.7 log10, IV, QD, 20% CD + 2H2T, 3 days post-infection. From the text:
The concept of studying the in vivo effect of an antibacterial compound by treating intraperitoneally infected mice was introduced in 1911 for optochin against pneumococci (Morgenroth and Levy, 1911). The popularity of the model comes from the ease of its use with short-duration experiments, reproducible infections and simple end-points.
Methicillin-sensitive S. aureus strain ATCC 29213 was used to infect female Swiss albino mice. A Brain Heart Infusion (BHI) broth bacterial culture was inoculated the day before infection, incubated at 37° C. overnight and diluted in fresh BHI broth to the desired concentration. Intraperitoneal (i.p.) injection of ˜5×10^9 colony forming units (CFU) was performed in either of the lateral lower quadrants of the abdomen. After inoculation, mice were kept in their cages under daily observation for development of signs of infection or death. For the treatment of mice, the p.o. route was used and each mouse was treated individually by gavage. Example of Cpd No. 48 was formulated as a 20% HP-β-cyclodextrin and example of Cpd No. 38 was formulated as a water/Tween-20 suspension. The parameter used for monitoring the course of infection and the effect of treatment was death or survival of the animals over 3 days post-infection. As death could also be due to toxic side effects, a non-infected control group of 3 mice, treated with the highest dose of the compound tested, was included.

The subject of data set [2] is Staphylococcus aureus ATCC 29213. As to the kind of experiment: Antibacterial susceptibility testing, IC90 determination (STA). It is filed as cell-based. The conditions noted are these: resazurin; for STA (361.159) IC90: Staphylococcus aureus ATCC 29213, broth microdilution. The method in brief:
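S. aureus ATCC 29213 tested by broth microdilution in Mueller-Hinton broth, 5×10^5 CFU/ml, two-fold compound dilutions typically 63 to 0.49 μM, 1.25% DMSO, 16-20 h at 35° C. Growth read fluorometrically with resazurin (ex 540/em 590 nm); IC90 in μg/ml is 90% growth-inhibitory concentration.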

Data set [3] addresses T1, S. aureus ATCC 29213 FabI (Staphylococcus aureus, UniProt Q6GI75).
T1 sequence (Q6GI75 1-256): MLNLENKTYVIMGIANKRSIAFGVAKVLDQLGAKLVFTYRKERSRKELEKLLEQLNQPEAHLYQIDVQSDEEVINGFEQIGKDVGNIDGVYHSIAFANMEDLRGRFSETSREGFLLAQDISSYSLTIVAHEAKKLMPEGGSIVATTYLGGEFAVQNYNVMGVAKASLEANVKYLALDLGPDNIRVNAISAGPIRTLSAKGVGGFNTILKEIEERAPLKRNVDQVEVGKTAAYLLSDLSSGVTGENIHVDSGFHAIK
As to the kind of experiment: Staphylococcus aureus FabI enzyme inhibition assay. Particulars: read-out: FabI (300.235) IC50 (converted). It is filed as biochemical. Summed up:
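S. aureus ATCC 29213 FabI (50 μg/ml) with 250 μM crotonoyl-CoA and 625 μM NADH in 100 mM NaADA pH 6.5, inhibitor 50–0.39 μM, 30 min at room temperature. Stopped by Tris pH 9.0 shift; NADH at 340 nm versus no-compound and no-enzyme controls; IC50 in μg/ml.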

Data set [4] can be described thus: Cytotoxicity MTT assay (HELAM). Particulars: human, HelaM cells, read-out: HELAM (222.125) CC50. The format is cell-based, Human. Summed up: (§1)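 HelaM cells exposed 72 h at 37° C to serial dilutions, typically 25 to 0.8 μM, in 0.5% DMSO. MTT formazan dissolved in 2-propanol, absorbance at 540 nm minus 690 nm; CC50 is concentration halving viability.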
Data set [5] is described as follows: In vivo pharmacokinetic and oral bioavailability in mouse. More on the design: species or system male Swiss mice. The conditions noted are these: for half-life: read-out: Half life (t1/2) (converted). As to the method:
The in vivo pharmacokinetics and oral bioavailability of the compound of the examples were/are investigated in male Swiss mice (fed) following single intravenous (i.v.) bolus and oral (p.o.) administration. For the i.v. and p.o. solution formulations, the compound was/is dissolved in a 20% HP-β-CD solution. The pH of the formulations was/is around pH 4. All i.v. formulations were isotonic.

Data set [6] relates to S. aureus. As to the kind of experiment: Antibacterial susceptibility testing, IC90 determination with 10% human serum (STA + 10% HS). The format is cell-based, Staphylococcus aureus. The conditions noted are these: human serum at final concentration of 10%. The method in brief:
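Broth microdilution in Mueller-Hinton broth with 10% human serum, 5×10^5 CFU/ml S. aureus, two-fold compound dilutions (typically 63 to 0.49 μM), 1.25% DMSO, 16-20 h at 35° C. Growth read fluorometrically with resazurin (ex 540/em 590 nm); IC90 in μg/ml is the 90% growth-inhibitory concentration.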

Data set [7] has as its system Human HelaM cells. Description: Cytotoxicity MTT assay (HELAM). It is filed as cell-based. The conditions noted are these: 72 hours. Summed up:
as §1

[8] abbreviates: male, Swiss, plasma, iv, 2.5 mg/kg, 20% HP-β-cyclodextrin.
Setting [9] is: male, Swiss, plasma, po, 10 mg/kg, 20% HP-β-cyclodextrin.

As to `O=C1CNCc2cc(/C=C/C(=O)N3CC4C=C(c5ccccc5)CC4C3)cnc2N1` (stereo not shown) [Cpd. No. 38], the “% Survival” value in data set [1] (2.5 mpk) was 75%. In addition, the “% Survival” value in data set [1] (5 mpk) worked out at 100%. The 90% effect concentration (IC90) in data set [2] (Staphylococcus aureus, ATCC29213, Staphylococcus aureus ATCC 29213, broth microdilution, read-out: STA (361.159) IC90) is below 0.19 µg/mL. In addition, the 50% inhibitory concentration (IC50) in data set [3] is 1050 nM. Moreover, the CC50 at 72 h in data set [4] is above 10.1 µg/mL. For the same compound, the Vdz in data set [5] (i.v., 2.5 mg/kg, 20% HP-β-cyclodextrin) came out at 3.1 L/kg. Further, in data set [5] (setting [8]), the area under the curve AUC(0-inf) was 2000 ng·h/mL and the half-life was 102 min. For the same compound, in data set [5] (male, Swiss, plasma, iv, 2.5 mg/kg, 20% HP-β-cyclodextrin, read-out: Plasma clearance Cl (converted)), the clearance was 21.7 mL/min/kg. Besides, in data set [5] (setting [9]), the AUC(0-inf) came to 2860 ng·h/mL, the Cmax is 665 ng/mL, the Tmax is 1.7 h and the half-life was 132 min. In data set [5] (male, Swiss, plasma, po, p.o. 10 mg/kg vs i.v. 2.5 mg/kg), this compound came in with a bioavailability of 36%. In addition, the IC90 in data set [6] (Staphylococcus aureus, read-out: STA + 10% HS (361.169) IC90) was found to be 0.24 µg/mL.
Turning to `O=C1CNCc2cc(/C=C/C(=O)N3CC4C=C(c5ccccc5)CC4C3)cnc2N1` (stereo not shown) [compound 47], the “STA (361.159) IC90” value in data set [2] was found to be 0.24 µg/mL. The IC50 in data set [3] was 874 nM. Moreover, in data set [7], the “HELAM (222.125) CC50” value was above 10.06 µg/mL. Moreover, the “STA + 10% HS (361.169) IC90” value in data set [6] worked out at 0.26 µg/mL.
Consider `CN1CC(=O)Nc2ncc(/C=C/C(=O)N3C[C@@H]4CN(c5ccccc5)C[C@@H]4C3)cc2C1` [compound 60], for which the melting point was 178 °C. The “STA (361.159) IC90” value in data set [2] was found to be 5.50 µg/mL. Further, the IC50 in data set [3] is 2180 nM. Further, the “HELAM (222.125) CC50” value in data set [7] was above 10.49 µg/mL. In addition, the “STA + 10% HS (361.169) IC90” value in data set [6] turned out to be 3.85 µg/mL.
Consider `O=C1Nc2ncc(/C=C/C(=O)N3CC4C=C(c5ccccc5)CC4C3)cc2CN2CCOCC12` (stereo not shown) [compound 69], for which the “STA (361.159) IC90” value in data set [2] worked out at 0.15 µg/mL. For the same compound, the IC50 in data set [3] was 1030 nM. Also, the “HELAM (222.125) CC50” value in data set [7] was found to be 8.31 µg/mL. For the same compound, in data set [6], the “STA + 10% HS (361.169) IC90” value stood at 0.22 µg/mL.
